Values of other authors as cited in PMC10006169, “A phase I trial of LXS196, a protein kinase C (PKC) inhibitor, for metastatic uveal melanoma” (British Journal of Cancer, 2023).

Test system: UM cell lines containing mutant GNAQ or GNA11
Conditions: cited from earlier work

CC1(N)CCN(c2cccnc2NC(=O)c2nc(-c3ncccc3C(F)(F)F)cnc2N)CC1 [LXS196]
Cellular activity: cellular activity restricted to UM cell lines containing mutant GNAQ or GNA11
